ChEMBL document CHEMBL4665729, “The SARS-CoV-2 main protease as drug target” (Bioorg Med Chem Lett, 2020)

Columns and labels:
[1] = Inhibition of SARS-CoV-2 main protease expressed in expressed in BL21(DE3) Escherichia Coli […] by FRET assay; set-up: species or system Severe acute respiratory syndrome coronavirus 2
[2] = tested on: Severe acute respiratory syndrome coronavirus 2; assay: Inhibition of SARS-CoV-2 main protease expressed in expressed in BL21(DE3) Escherichia Coli […] by measuring ratio of K2/Ki by FRET assay

| Compound | EC50 [1] [nM] | Ki [1] [nM] | Ratio [2] [M⁻¹ s⁻¹] |
| --- | --- | --- | --- |
| CC(C)(C)NC(=O)N[C@H](C(=O)N1C[C@H]2[C@@H]([C@H]1C(=O)NC(CC1CCC1)C(=O)C(N)=O)C2(C)C)C(C)(C)C (stereo partly drawn) [BOCEPREVIR] | 1310 | 1180 |  |
| CC(C)C[C@H](NC(=O)OCc1ccccc1)C(=O)N[C@@H](CC1CCNC1=O)C(O)S(=O)(=O)O (stereo partly drawn) |  |  | 40800 |
